Legend:
[1] = Aqueous N-acetyl-L-glutamine and glutamine heat stability at 100° C. (HPLC); type: physicochemical; settings: for Stability during incubation at 100° C. (in words): aqueous solution, 2 hour incubation at 100° C.
Method: In order to test the stability of aqueous N-acetyl-glutamine upon heating, the following procedure was followed. Aqueous solutions of N-acetyl-L-glutamine (obtained from Sigma, catalog no. A-9125) and glutamine (obtained from Aldrich, catalog no. G-320-2) at approximately 1 mg/mL (5.3 mM and 6.8 mM, respectively) were prepared without pH adjustment. The pH of the resulting N-acetyl-L-glutamine solution was 2.9 and the pH of the glutamine solution was 6.0. The solutions were heated at 100° C. using a Reacti-Therm™ stirring heat block with sealed 4 mL vessels, one for each time point: 15 minutes, 30 minutes, 1 hour and 2 hours. The samples were removed from the heat block and immediately placed into ice until cool. An aliquot of each sample was filtered through 0.45 micrometer filters (Millipore Millex®-HV, 25 mm) for assessment by HPLC. HPLC analysis was conducted using an Inertsil® C8, 5 micrometer, 4.6×250 mm column (obtained from Keystone Scientific, Inc., Bellefonte, Pa.). The mobile phase was water adjusted to pH 2.2 with HCl (isocratic at 1 mL/minute). The injection volume was 10 microliters. Ultraviolet detection was at 214 nm.

[2] = Aqueous stability at various pH values, ambient temperature (HPLC); type: physicochemical; settings: for GLN (glutamine) in glutamine solution / PGA (pyroglutamic acid) in glutamine solution: pH 6.0, 1 mg/mL
Method: HPLC analysis was conducted using an Inertsil® C8, 5 micrometer, 4.6×250 mm column (obtained from Keystone Scientific, Inc., Bellefonte, Pa.). The mobile phase was water adjusted to pH 2.2 with HCl (isocratic at 1 mL/minute). The injection volume was 10 microliters. Ultraviolet detection was at 214 nm. In order to test the stability of N-acetyl-L-glutamine in aqueous solutions at various pH values, the following procedure was followed. Aqueous solutions of N-acetyl-L-glutamine were prepared in 1 pH unit increments from pH 2.0 to 8.0. The pH of the solutions was adjusted with either hydrochloric acid or sodium hydroxide, as needed, just prior to final dilution (final concentration=1 mg/mL or 5.3 mM N-acetyl-L-glutamine). A single solution of glutamine was not pH adjusted (measured pH=6.0) and was prepared at 1 mg/mL or 6.8 mM glutamine. All solutions were sterile-filtered (Millipore Millex®-GS, 25 mm, 0.22 micrometer pore size, sterile) into autosampler vials and capped for storage at ambient temperature (17-25° C.). N-acetyl-L-glutamine samples were assessed by HPLC at various time points, from 1 to 180 days. The glutamine sample was assessed by HPLC at similar time points, from 1 to 45 days.

[3] = approx. 1 mg/mL, pH 6.0, 100° C., 30 min
[4] = approx. 1 mg/mL, pH 6.0, 100° C., 60 min
[5] = approx. 1 mg/mL, pH 6.0, 100° C., 120 min
[6] = pH 3.0, ambient temperature, 6 months

Question: Which “GLN (glutamine) in glutamine solution” value ([1]; approx. 1 mg/mL (6.8 mM), pH 6.0, 100° C., 0 min) does the source give for `NC(=O)CC[C@H](N)C(=O)O` [Glutamine, glutamine] here?
Answer: 100.0 height %

Question: And the “PGA (pyroglutamic acid) in glutamine solution” value (shortened to “PGA … in glutamine solution”) ([1]; approx. 1 mg/mL, pH 6.0, 100° C., 0 min)?
Answer: none detected

Question: And the “GLN (glutamine) in glutamine solution” value [1, 3]?
Answer: 90.2 height %

Question: What about the “PGA … in glutamine solution” value [1, 3] of the same compound?
Answer: 9.8 height %

Question: What about the “GLN (glutamine) in glutamine solution” value [1, 4] of the same compound?
Answer: 80.0 height %

Question: What about the “PGA … in glutamine solution” value [1, 4] of the same compound?
Answer: 20.0 height %

Question: And the “GLN (glutamine) in glutamine solution” value [1, 5]?
Answer: 53.6 height %

Question: And the “GLU (glutamate) in glutamine solution” value [1, 5]?
Answer: 10.6 height %

Question: And the “PGA … in glutamine solution” value [1, 5]?
Answer: 35.8 height %

Question: And the “Stability during incubation at 100° C. (in words)” value [1]?
Answer: not stable

Question: And the “GLN (glutamine) in glutamine solution” value ([2]; ambient temperature, 2 days)?
Answer: 100.0 height percent

Question: What about the “PGA … in glutamine solution” value ([2]; ambient temperature, 2 days) of the same compound?
Answer: none detected

Question: What about the “GLN (glutamine) in glutamine solution” value ([2]; ambient temperature, 3 days) of the same compound?
Answer: 99.8 height percent

Question: What about the “PGA … in glutamine solution” value ([2]; ambient temperature, 3 days) of the same compound?
Answer: 0.2 height percent

Question: And the “GLN (glutamine) in glutamine solution” value ([2]; ambient temperature, 7 days)?
Answer: 99.5 height percent

Question: What about the “PGA … in glutamine solution” value ([2]; ambient temperature, 7 days) of the same compound?
Answer: 0.5 height percent

Question: And the “GLN (glutamine) in glutamine solution” value ([2]; ambient temperature, 15 days)?
Answer: 99.0 height percent

Question: What about the “PGA … in glutamine solution” value ([2]; ambient temperature, 15 days) of the same compound?
Answer: 1.0 height percent

Question: And the “GLN (glutamine) in glutamine solution” value ([2]; ambient temperature, 30 days)?
Answer: 98.1 height percent

Question: What about the “PGA … in glutamine solution” value ([2]; ambient temperature, 30 days) of the same compound?
Answer: 1.9 height percent

Question: What about the “GLN (glutamine) in glutamine solution” value ([2]; ambient temperature, 45 days) of the same compound?
Answer: 96.7 height percent

Question: And the “PGA … in glutamine solution” value ([2]; ambient temperature, 45 days)?
Answer: 3.3 height percent

Question: Which results are given for `CC(=O)N[C@@H](CCC(N)=O)C(=O)O` [N-acetyl-L-glutamine]?
Answer: NAQ (N-acetyl-L-glutamine) in N-acetyl-L-glutamine solution ([1]; approx. 1 mg/mL (5.3 mM), pH 2.9, 100° C., 0 min): 99.7 area %; NAQ (N-acetyl-L-glutamine) in N-acetyl-L-glutamine solution ([1]; approx. 1 mg/mL, pH 2.9, 100° C., 30 min): 98.1 area %; NAQ (N-acetyl-L-glutamine) in N-acetyl-L-glutamine solution ([1]; approx. 1 mg/mL, pH 2.9, 100° C., 60 min): 96.9 area %; NAQ (N-acetyl-L-glutamine) in N-acetyl-L-glutamine solution ([1]; approx. 1 mg/mL, pH 2.9, 100° C., 120 min): 93.4 area %; Stability during incubation at 100° C. (in words) [1]: much more stable than glutamine; NAE (N-acetyl-L-glutamic acid) in N-acetyl-L-glutamine solution ([1]; pH 2.9, 100° C., 0 min): 0.3 area %; 2,6-DPA (2,6-dioxopiperidinylacetamide) in N-acetyl-L-glutamine solution ([1]; pH 2.9, 100° C., 30 min): 0.6 area %; NAE (N-acetyl-L-glutamic acid) in N-acetyl-L-glutamine solution ([1]; pH 2.9, 100° C., 30 min): 1.2 area %; 2,6-DPA (2,6-dioxopiperidinylacetamide) in N-acetyl-L-glutamine solution ([1]; pH 2.9, 100° C., 60 min): 1.3 area %; NAE (N-acetyl-L-glutamic acid) in N-acetyl-L-glutamine solution ([1]; pH 2.9, 100° C., 60 min): 1.8 area %; 2,6-DPA (2,6-dioxopiperidinylacetamide) in N-acetyl-L-glutamine solution ([1]; pH 2.9, 100° C., 120 min): 2.7 area %; NAE (N-acetyl-L-glutamic acid) in N-acetyl-L-glutamine solution ([1]; pH 2.9, 100° C., 120 min): 3.7 area %; PGA (pyroglutamic acid) in N-acetyl-L-glutamine solution ([1]; pH 2.9, 100° C., 120 min): 0.2 area %; Degradation of N-acetyl-L-glutamine ([2]; 1 mg/mL, all pH values (2.0 to 8.0), ambient temperature, through 7 days): no degradation; N-acetyl-L-glutamine remaining ([2]; pH 2.0, ambient temperature, 6 months): 55.7%; N-acetyl-L-glutamine remaining ([2]; pH 2.0, ambient temperature, 15 days): 97.0%; N-acetyl-L-glutamine remaining ([2]; pH 3.0, ambient temperature, 4 months): 94.2%; N-acetyl-L-glutamine remaining [2, 6]: 90.4%; N-acetyl-glutamic acid and 2,6-dioxopiperidinylacetamide (approximately equal levels) [2, 6]: about 5%; N-acetyl-glutamic acid and 2,6-dioxopiperidinylacetamide (approximately equal levels) ([2]; pH 3.0, ambient temperature, 15 days): about 0.15%; N-acetyl-glutamic acid and 2,6-dioxopiperidinylacetamide (approximately equal levels) ([2]; pH 3.0, ambient temperature, 30 days): about 1%; N-acetyl-L-glutamine remaining ([2]; pH 3.0, ambient temperature, through 90 days): > 95%; N-acetyl-L-glutamine remaining ([2]; pH 4.0, ambient temperature, six months): 97.9%; N-acetyl-L-glutamine remaining ([2]; pH 5.0 to 8.0, ambient temperature, 6 months): greater than 99.6%
